A word on the GI50: it is the concentration giving 50% growth inhibition. Low readings indicate more potent growth inhibition, high ones less potent growth inhibition.

The subject of test [1] is NCI-H322M. The experiment in a line: NCI-60 in vitro tumor cell growth inhibition, NCI-H322M (non-small cell lung cancer). It is filed as cell-based. The conditions noted are these: Homo sapiens, five concentration levels. As for the experimental part:
(§1) All the synthesized thiazoles 3a–k were evaluated by the National Cancer Institute (Bethesda MD) for cytotoxicity against the NCI-60 cell line panel using standard protocols. Initially, the selected derivatives 3c,d,g,h,j,k were tested at a single dose (10^−5 M) on the full panel of approximately 60 human tumor cell lines derived from 9 human cancer cell types, that have been grouped in disease sub-panels including leukemia, non-small-cell lung, colon, central nervous system (CNS), melanoma, ovarian, renal, prostate and breast cancers (data not shown). Compounds 3d and 3k were further selected for full evaluation at five concentration levels (10^−4–10^−8 M).
(§2) The antitumor activity of compounds 3d and 3k was given by three parameters for each cell line: GI50 (the molar concentration of the compound that inhibits 50% net cell growth), TGI (the molar concentration of the compound leading to total inhibition of net cell growth), and LC50 (the molar concentration of the compound that induces 50% net cell death). The average values of mean graph midpoint (MG_MID) were calculated for each of these parameters.

For test [2], the system named is HCC-2998. Kind of test: NCI-60 in vitro tumor cell growth inhibition, HCC-2998 (colon cancer). In kind it is cell-based. The conditions noted are these: Homo sapiens, five concentration levels. On the procedure:
as §1, §2

Test [3] has as its system SF-295. The experiment in a line: NCI-60 in vitro tumor cell growth inhibition, SF-295 (CNS cancer). In kind it is cell-based. The conditions noted are these: Homo sapiens, five concentration levels. As for the experimental part: as §1, §2
Test [4] deals with SK-MEL-28. Kind of test: NCI-60 in vitro tumor cell growth inhibition, SK-MEL-28 (melanoma). The conditions noted are these: Homo sapiens, five concentration levels. In kind it is cell-based. As for the experimental part: as §1, §2
Test [5] relates to HepG2 cells. The experiment in a line: Intracellular reactive oxygen species, DCFH flow cytometry. In kind it is cell-based, human. To be noted: HepG2, 24 h treatment. On the procedure:
Involvement of mitochondria in apoptosis induced in HepG2 cells by the synthesized nortopsentin analogues, was assessed. Loss of mitochondrial trans-membrane potential was indicated by decreased mitochondrial 3,30-dihexyloxacarbocyanine iodide-red fluorescence (Figure 4A).
ROS level was monitored by measuring fluorescence changes that resulted from intracellular oxidation of 2′,7′-dichlorofluorescin diacetate (DCFH). DCFH, at […] final concentration, was added to the cell medium 30 min before the end of the treatment. The cells were collected by centrifugation for 5 min at 2000 rpm at 4 °C, washed, suspended in PBS and immediately subjected to fluorescence-activated cell sorting analysis. At least 1 × 10^4 cells were analyzed for each sample.
On the technique in general: A flow cytometer gives signals particle by particle.

For test [6], the system named is human HepG2 hepatocarcinoma cells. Kind of test: MTT cell growth assay, HepG2. It is filed as cell-based. To be noted: 72 h, 0.1–10 μM. As for the experimental part:
Cell growth inhibitory activity of compounds 3d and 3k was also investigated on human HepG2 hepatocarcinoma cells, a cell line not included in the NCI panel and of interest in the drug discovery because provided with a very active microsomal system for detoxification of xenobiotics. Monolayer cultures treated for 72 h with 0.1–10 μM concentrations of the compounds were examined by 3-(4,5-dimethylthiazol-2-yl)-2,5-diphenyltetrazolium bromide (MTT) assay for cell growth.
Human cell lines of hepatoma HepG2 and Chang liver were purchased from American Type Culture Collection, Rockville, MD, USA. Cells were grown in RPMI supplemented with 2 mM L-glutamine, 10% FBS, 100 U/mL penicillin, 100 μg/mL streptomycin and 5 μg/mL gentamicin. HepG2 culture medium also contained 1.0 mM sodium pyruvate. Cells were maintained in log phase by seeding twice a week at a density of 3 × 10^8 cells/L in humidified 5% CO2 atmosphere, at 37 °C. […] Cytotoxic activity of the compounds was determined by the MTT quantitative colorimetric assay based on the reduction of the 3-(4,5-dimethyl-2-thiazolyl)-2,5-diphenyl-2H-tetrazolium bromide (MTT) into purple formazan by mitochondrial dehydrogenases of living cells. […] The absorbance at 540 nm was measured in a microplate reader (Bio-RAD, Hercules, CA, USA). […]

The subject of test [7] is UO-31. The experiment in a line: NCI-60 in vitro tumor cell growth inhibition, UO-31 (renal cancer). It is filed as cell-based. The conditions noted are these: Homo sapiens, five concentration levels. As for the experimental part:
as §1, §2

Structures are written as SMILES.

On to `Cn1cc(-c2csc(-c3cn(C)c4ncccc34)n2)c2ccccc21` [Compound 3d, 1-Methyl-3-[4-(1-methyl-1H-indol-3-yl)-1,3-thiazol-2-yl]-1H-pyrrolo[2,3-b]pyridine], for which the GI50 in test [1] was found to be 0.76 µM; in test [2], 1.13 µM; in test [3], 0.24 µM; in test [4], 1.2 µM; in test [6] it was 1.69 µM; in test [7] it was 0.9 µM. Further, in test [5], the “levels of intracellular ROS” value is given as “significantly higher than cell control”.

On to `Cn1cc(-c2nc(-c3c[nH]c4ccccc34)cs2)c2cccnc21` [Compound 3k, 3-[4-(1H-Indol-3-yl)-1,3-thiazol-2-yl]-1-methyl-1H-pyrrolo[2,3-b]pyridine], for which the GI50 was found to be 1.18 µM in test [2]; 0.31 µM in test [3]; 0.76 µM in test [4]; 0.21 µM in test [6]; 0.69 µM in test [7]. Moreover, the “levels of intracellular ROS” value in test [5] is reported as “significantly higher than cell control”.

The record behind these values is article PMC4413193, “3-[4-(1H-Indol-3-yl)-1,3-thiazol-2-yl]-1H-pyrrolo[2,3-b]pyridines, Nortopsentin Analogues with Antiproliferative Activity” (Marine Drugs, 2015).
